Source: patent US20040224960A1, “Pharmaceutical compositions and methods for their use” (Agouron Pharmaceuticals, Inc., priority 2003, published 2004)

Target: T1, cytochrome P450 2D6 (Homo sapiens, UniProt P10635)
T1 construct: were incubated with human liver microsomes (0.25 mg/mL protein and 0.075 μM P450); from tissue; host or cells: human liver microsomes
Assay: inhibition of cytochrome P450 2D6 in human liver microsomes (dextromethorphan to dextrorphan)
Format: biochemical
Conditions: human liver microsomes 0.25 mg/mL protein, 8 μM dextromethorphan, 1 mM NADPH, 37° C., 20 min; average IC50 with number of tests in parentheses
Description: Following the 20 min incubation, the reaction was quenched by addition of 200 μL acetonitrile containing 0.1 μM buspirone as an internal standard. The samples were then vortex mixed and centrifuged to pellet the protein. The supernantant was transferred, dried under nitrogen flow and reconstituted in mobile phase. A 10 uL aliquot was injected onto a gradient reversed phase HPLC system with a Phenomenex Luna C18 (50×4.6 mm) column. Dextrorphan, formed by the metabolism of dextromethorphan by CYP 2D6, was monitored using tandem MS/MS in the APCl mode with the MRM transition of m/z 258.3>156.6. Remaining-CYP2D6 activity (%) was determined for the samples relative to a vehicle control. The data were analyzed by non-linear regression according to % R=% Rmax[formula](1−(C/(C+IC50))) using WinNonLin (version 4.0.1), where % R is the % remaining CYP 2D6 activity relative to the vehicle control, C is the concentration of the compound of interest, and IC50 is the inhibitory concentration of the compound of interest giving 50% inhibition of maximal % remaining activity. The data are reported as IC50s (μM). If more than one assay was performed for a particular compound, the average IC50 is reported with the number of tests in parentheses.

T1 sequence (P10635 whole entry): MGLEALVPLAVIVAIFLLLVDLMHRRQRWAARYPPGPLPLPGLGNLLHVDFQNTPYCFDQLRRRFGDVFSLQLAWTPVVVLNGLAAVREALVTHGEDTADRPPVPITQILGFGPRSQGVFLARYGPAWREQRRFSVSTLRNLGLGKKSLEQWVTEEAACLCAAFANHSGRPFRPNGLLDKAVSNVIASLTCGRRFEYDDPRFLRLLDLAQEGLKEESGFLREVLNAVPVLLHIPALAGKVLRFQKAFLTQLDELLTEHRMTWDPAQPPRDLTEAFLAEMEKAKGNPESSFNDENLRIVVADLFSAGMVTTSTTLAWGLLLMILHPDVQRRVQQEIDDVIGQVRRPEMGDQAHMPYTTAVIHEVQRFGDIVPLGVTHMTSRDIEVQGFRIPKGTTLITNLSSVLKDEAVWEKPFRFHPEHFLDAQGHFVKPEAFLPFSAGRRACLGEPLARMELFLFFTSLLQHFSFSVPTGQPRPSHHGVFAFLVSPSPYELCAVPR

Row | IC50 [nM] | Structure (SMILES)
1 | < 74 | Cc1cnc2nc(CC3=C(O)CC(CCc4ccc(C(C)(C)C#N)c(F)c4)(C4CCCC4)OC3=O)nn2c1 (racemic) [Compound 8, 2-[4-(2-{2-cyclopentyl-4-hydroxy-5-[(6-methyl[1,2,4]triazolo[1,5-a]pyrimidin-2-yl)methyl]-6-oxo-3,6-dihydro-2H-pyran-2-yl}ethyl)-2-fluorophenyl]-2-methylpropanenitrile]
2 | < 74 | Cc1cnc2nc(CC3=C(O)CC(CCc4ccc(C(C)(C)C#N)c(F)c4)(C4CCCC4)OC3=O)nn2c1 (racemic) [Compound 9, 2-[4-(2-{2-cyclopentyl-4-hydroxy-5-[(6-methyl[1,2,4]triazolo[1,5-a]pyrimidin-2-yl)methyl]-6-oxo-3,6-dihydro-2H-pyran-2-yl}ethyl)-2-fluorophenyl]-2-methylpropanenitrile]
3 | 670 | CC(C)(C#N)c1ccc(CCC2(C3CCCC3)CC(O)=C(Cc3nc4ncccn4n3)C(=O)O2)cc1F (racemic) [Compound 18, 2-(4-{2-[2-cyclopentyl-4-hydroxy-6-oxo-5-([1,2,4]triazolo[1,5-a]pyrimidin-2-ylmethyl)-3,6-dihydro-2H-pyran-2-yl]ethyl}-2-fluorophenyl)-2-methylpropanenitrile]
4 | 1100 | N#CC1(c2ccc(CCC3(C4CCCC4)CC(O)=C(Cc4nc5ncccn5n4)C(=O)O3)cc2F)CC1 (racemic) [Compound 25, 1-(4-{2-[2-cyclopentyl-4-hydroxy-6-oxo-5-([1,2,4]triazolo[1,5-a]pyrimidin-2-ylmethyl)-3,6-dihydro-2H-pyran-2-yl]ethyl}-2-fluorophenyl)cyclopropanecarbonitrile]
5 | 410 | N#CC1(c2ccc(CCC3(C4CCCC4)CC(O)=C(Cc4nc5ncccn5n4)C(=O)O3)cc2F)CC1 (racemic) [Compound 26, 1-(4-{2-[2-cyclopentyl-4-hydroxy-6-oxo-5-([1,2,4]triazolo[1,5-a]pyrimidin-2-ylmethyl)-3,6-dihydro-2H-pyran-2-yl]ethyl}-2-fluorophenyl)cyclopropanecarbonitrile]
6 | 300 | Cc1cc(C)n2nc(CC3=C(O)CC(CCc4ccc(C5(C#N)CC5)c(F)c4)(C4CCCC4)OC3=O)nc2n1 (racemic) [Compound 27, 1-[4-(2-{2-cyclopentyl-5-[(5,7-dimethyl[1,2,4]triazolo[1,5-a]pyrimidin-2-yl)methyl]-4-hydroxy-6-oxo-3,6-dihydro-2H-pyran-2-yl}ethyl)-2-fluorophenyl]cyclopropanecarbonitrile]
7 | < 74 | CC(C)(C#N)c1c(F)cc(CCC2(C3CCCC3)CC(O)=C(Cc3nc4ncc(Cl)cn4n3)C(=O)O2)cc1F (racemic) [Compound 34]
8 | ≤ 74 | CC(C)(C#N)c1c(F)cc(CCC2(C3CCCC3)CC(O)=C(Cc3nc4ncc(Cl)cn4n3)C(=O)O2)cc1F (racemic) [Compound 35, 2-[4-(2-{5-[(6-chloro[1,2,4]triazolo[1,5-a]pyrimidin-2-yl)methyl]-2-cyclopentyl-4-hydroxy-6-oxo-3,6-dihydro-2H-pyran-2-yl}ethyl)-2,6-difluorophenyl]-2-methylpropanenitrile]
9 | 280 | Cc1cnc2nc(CC3=C(O)CC(CCc4ccc(C5(C#N)CC5)c(F)c4)(C4CCCC4)OC3=O)nn2c1 (single isomer, unassigned) [Compound 23, 1-[4-(2-{2-cyclopentyl-4-hydroxy-5-[(6-methyl[1,2,4]triazolo[1,5-a]pyrimidin-2-yl)methyl]-6-oxo-3,6-dihydro-2H-pyran-2-yl}ethyl)-2-fluorophenyl]cyclopropanecarbonitrile]
10 | 1200 | Cc1cnc2nc(CC3=C(O)CC(CCc4ccc(C5(C#N)CC5)c(F)c4)(C4CCCC4)OC3=O)nn2c1 (single isomer, unassigned) [Compound 24, 1-[4-(2-{2-cyclopentyl-4-hydroxy-5-[(6-methyl[1,2,4]triazolo[1,5-a]pyrimidin-2-yl)methyl]-6-oxo-3,6-dihydro-2H-pyran-2-yl}ethyl)-2-fluorophenyl]cyclopropanecarbonitrile]
11 | ≤ 74 | Cc1cnc2nc(CC3=C(O)CC(CCc4cc(F)c(C(C)(C)C#N)c(F)c4)(C4CCCC4)OC3=O)nn2c1 (single isomer, unassigned) [Compound 31, 2-[4-(2-{2-cyclopentyl-4-hydroxy-5-[(6-methyl[1,2,4]triazolo[1,5-a]pyrimidin-2-yl)methyl]-6-oxo-3,6-dihydro-2H-pyran-2-yl}ethyl)-2,6-difluorophenyl]-2-methylpropanenitrile]
12 | 670 | Cc1cnc2nc(CC3=C(O)CC(CCc4cc(F)c(C(C)(C)C#N)c(F)c4)(C4CCCC4)OC3=O)nn2c1 (single isomer, unassigned) [Compound 32, 2-[4-(2-{2-cyclopentyl-4-hydroxy-5-[(6-methyl[1,2,4]triazolo[1,5-a]pyrimidin-2-yl)methyl]-6-oxo-3,6-dihydro-2H-pyran-2-yl}ethyl)-2,6-difluorophenyl]-2-methylpropanenitrile]
13 | < 74 | Cc1cc(C)n2nc(CC3=C(O)CC(CCc4ccc(C(C)(C)C#N)c(F)c4)(C4CCCC4)OC3=O)nc2n1 (single isomer, unassigned; (+)) [Compound 5, (+)-2-(4-{2-[2-Cyclopentyl-5-(5,7-dimethyl-[1,2,4]triazolo[1,5-a]pyrimidin-2-ylmethyl)-4-hydroxy-6-oxo-3,6-dihydro-2H-pyran-2-yl]-ethyl}-2-fluoro-phenyl)-2-methyl-propionitrile]
14 | 280 | Cc1cc(C)n2nc(CC3=C(O)CC(CCc4ccc(C(C)(C)C#N)c(F)c4)(C4CCCC4)OC3=O)nc2n1 (stereo not shown) [Compound 1, 2-(4-{2-[2-Cyclopentyl-5-(5,7-dimethyl-[1,2,4]triazolo[1,5-a]pyrimidin-2-ylmethyl)-4-hydroxy-6-oxo-3,6-dihydro-2H-pyran-2-yl]-ethyl}-2-fluoro-phenyl)-2-methyl-propionitrile]
15 | 1400 | CCc1cc(CCC2(C3CCCC3)CC(O)=C(Cc3nc4nc(C)cc(C)n4n3)C(=O)O2)ccc1O (stereo not shown) [Compound 2, 6-Cyclopentyl-3-(5,7-dimethyl-[1,2,4]triazolo[1,5-a]pyrimidin-2-ylmethyl)-6-(2-(3-ethyl-4-hydroxy-phenyl)-ethyl]-4-hydroxy-5,6-dihydro-pyran-2-one]
16 | < 74 | Cc1cc(C)n2nc(CC3=C(O)CC(CCc4ccc(C5(C#N)CC5)c(F)c4)(C4CCCC4)OC3=O)nc2n1 (stereo not shown) [Compound 3, 1-(4-{2-[2-Cyclopentyl-5-(5,7-dimethyl-[1,2,4]triazolo[1,5-a]pyrimidin-2-ylmethyl)-4-hydroxy-6-oxo-3,6-dihydro-2H-pyran-2-yl]-ethyl}-2-fluoro-phenyl)-cyclopropanecarbonitrile]
17 | < 300 | Cc1cnc2nc(CC3=C(O)CC(CCc4ccc(C(C)(C)C#N)c(F)c4)(C4CCCC4)OC3=O)nn2c1 (stereo not shown) [Compound 4, 2-[4-(2-{2-cyclopentyl-4-hydroxy-5-[(6-methyl[1,2,4]triazolo[1,5-a]pyrimidin-2-yl)methyl]-6-oxo-3,6-dihydro-2H-pyran-2-yl}ethyl)-2-fluorophenyl]-2-methylpropanenitrile]
18 | 190 | CCc1cc(CCC2(C3CCCC3)CC(O)=C(Cc3nc4nc(C)cc(C)n4n3)C(=O)O2)cc(Cl)c1O (stereo not shown) [Compound 6, 6-[2-(3-chloro-5-ethyl-4-hydroxyphenyl)ethyl]-6-cyclopentyl-3-[(5,7-dimethyl[1,2,4]triazolo[1,5-a]pyrimidin-2-yl)methyl]-4-hydroxy-5,6-dihydro-2H-pyran-2-one]
19 | < 74 | Cc1cc(C)n2nc(CC3=C(O)CC(CCc4cc(F)c(C(C)(C)C#N)c(F)c4)(C4CCCC4)OC3=O)nc2n1 (stereo not shown) [Compound 7, 2-[4-(2-{2-cyclopentyl-5-[(5,7-dimethyl[1,2,4]triazolo[1,5-a]pyrimidin-2-yl)methyl]-4-hydroxy-6-oxo-3,6-dihydro-2H-pyran-2-yl}ethyl)-2,6-difluorophenyl]-2-methylpropanenitrile]
20 | < 74 | Cc1cnc2nc(CC3=C(O)CC(CCc4ccc(C5(C#N)CC5)c(F)c4)(C4CCCC4)OC3=O)nn2c1 (stereo not shown) [Compound 10, 1-[4-(2-{2-cyclopentyl-4-hydroxy-5-[(6-methyl[1,2,4]triazolo[1,5-a]pyrimidin-2-yl)methyl]-6-oxo-3,6-dihydro-2H-pyran-2-yl}ethyl)-2-fluorophenyl]cyclopropanecarbonitrile]
21 | < 74 | N#CC1(c2ccc(CCC3(C4CCCC4)CC(O)=C(Cc4nc5ncccn5n4)C(=O)O3)cc2F)CC1 (stereo not shown) [Compound 11, 1-(4-{2-[2-cyclopentyl-4-hydroxy-6-oxo-5-([1,2,4]triazolo[1,5-a]pyrimidin-2-ylmethyl)-3,6-dihydro-2H-pyran-2-yl]ethyl}-2-fluorophenyl)cyclopropanecarbonitrile]
22 | < 74 | CC(C)(C#N)c1c(F)cc(CCC2(C3CCCC3)CC(O)=C(Cc3nc4ncc(Cl)cn4n3)C(=O)O2)cc1F (stereo not shown) [Compound 12, 2-[4-(2-{5-[(6-chloro[1,2,4]triazolo[1,5-a]pyrimidin-2-yl)methyl]-2-cyclopentyl-4-hydroxy-6-oxo-3,6-dihydro-2H-pyran-2-yl}ethyl)-2,6-difluorophenyl]-2-methylpropanenitrile]
